# ChEMBL document CHEMBL5356952, “Design, synthesis, and biological evaluation of deuterated indolepropionic acid derivatives as novel long-acting pan PPARα/γ/δ agonists” (Bioorg Med Chem, 2023)
# Key:
# [1] = Metabolic stability in rat liver microsomes assessed as half life preincubated for 5 mins followed by NADPH addition and measured upto 60 mins by LC-MS analysis; type: ADME, Microsome; settings: time < 65 min
# [2] = biological target: T1, Peroxisome proliferator-activated receptor delta (Homo sapiens, UniProt Q03181); assay: Agonist activity at PPARdelta (unknown origin)
# T1 sequence (Q03181 whole entry): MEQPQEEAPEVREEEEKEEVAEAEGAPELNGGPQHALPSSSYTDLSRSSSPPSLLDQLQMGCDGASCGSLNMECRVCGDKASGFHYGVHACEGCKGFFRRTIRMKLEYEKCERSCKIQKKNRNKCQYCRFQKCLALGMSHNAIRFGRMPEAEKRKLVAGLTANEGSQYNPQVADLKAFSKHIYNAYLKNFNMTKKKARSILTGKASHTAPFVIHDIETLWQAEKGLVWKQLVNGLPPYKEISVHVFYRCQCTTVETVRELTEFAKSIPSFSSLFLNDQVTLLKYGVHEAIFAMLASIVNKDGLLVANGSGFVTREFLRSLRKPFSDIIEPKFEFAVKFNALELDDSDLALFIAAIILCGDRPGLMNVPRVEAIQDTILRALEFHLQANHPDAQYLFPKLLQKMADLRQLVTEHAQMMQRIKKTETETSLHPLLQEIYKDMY
# [3] = biological target: T2, Peroxisome proliferator-activated receptor alpha (Homo sapiens, UniProt Q07869); assay: Agonist activity at PPARalpha (unknown origin)
# T2 sequence (Q07869 whole entry): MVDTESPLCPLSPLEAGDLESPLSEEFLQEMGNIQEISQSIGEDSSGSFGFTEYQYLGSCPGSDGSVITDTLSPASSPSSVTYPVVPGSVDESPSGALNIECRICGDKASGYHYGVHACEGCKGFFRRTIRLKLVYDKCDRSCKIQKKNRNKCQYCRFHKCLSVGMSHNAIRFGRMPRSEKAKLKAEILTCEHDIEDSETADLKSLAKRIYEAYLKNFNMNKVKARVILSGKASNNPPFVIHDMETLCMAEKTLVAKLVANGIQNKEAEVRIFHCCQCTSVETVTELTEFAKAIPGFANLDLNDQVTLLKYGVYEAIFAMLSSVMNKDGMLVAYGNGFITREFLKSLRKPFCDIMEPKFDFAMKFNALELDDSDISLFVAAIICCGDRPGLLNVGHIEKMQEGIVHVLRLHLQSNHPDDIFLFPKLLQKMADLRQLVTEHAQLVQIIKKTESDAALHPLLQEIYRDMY
# [4] = biological target: T3, Peroxisome proliferator-activated receptor gamma (Homo sapiens, UniProt P37231); assay: Agonist activity at PPARgamma (unknown origin)
# T3 sequence (P37231 whole entry): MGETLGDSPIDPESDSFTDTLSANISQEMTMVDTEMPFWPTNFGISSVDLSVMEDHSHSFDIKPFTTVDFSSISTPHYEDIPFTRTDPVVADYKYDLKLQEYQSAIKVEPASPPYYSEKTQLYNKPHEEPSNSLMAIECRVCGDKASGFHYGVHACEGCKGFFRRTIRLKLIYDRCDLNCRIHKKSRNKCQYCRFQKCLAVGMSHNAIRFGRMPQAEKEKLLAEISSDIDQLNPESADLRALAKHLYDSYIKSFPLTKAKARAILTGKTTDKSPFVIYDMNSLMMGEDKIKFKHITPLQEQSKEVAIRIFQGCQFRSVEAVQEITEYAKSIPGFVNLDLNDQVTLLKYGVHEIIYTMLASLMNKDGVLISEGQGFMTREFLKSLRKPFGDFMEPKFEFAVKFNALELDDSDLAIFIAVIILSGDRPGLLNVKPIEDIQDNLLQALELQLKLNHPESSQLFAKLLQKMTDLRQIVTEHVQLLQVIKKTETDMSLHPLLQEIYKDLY
# [5] = Half life in rat; type: ADME; settings: in vivo
half-life [1] [h],EC50 [2] [µM],EC50 [3] [µM],EC50 [4] [µM],half-life [5] [h],Structure (SMILES)
1.12,,,,,[2H]C([2H])(Cc1cn(S(=O)(=O)c2ccc3c(c2)CCO3)c2ccc(OC)cc12)C(=O)O
1.16,0.85,0.98,,,[2H]C([2H])(Cc1cn(S(=O)(=O)c2ccc(OC)cc2)c2ccc(OC)cc12)C(=O)O
1.06,,,,,[2H]C([2H])(Cc1cn(S(=O)(=O)c2ccc(C3CC3)cc2)c2ccc(OC)cc12)C(=O)O
1.23,,1.26,0.95,,[2H]C([2H])(Cc1cn(S(=O)(=O)c2ccc(OC(F)(F)F)cc2)c2ccc(OC)cc12)C(=O)O
1.14,2.97,2.52,,,[2H]C([2H])(Cc1cn(S(=O)(=O)c2ccc(OC)cc2)c2ccc(C3CC3)cc12)C(=O)O
0.775,0.94,1.15,,1.4,COc1ccc(S(=O)(=O)n2cc(CCC(=O)O)c3cc(OC)ccc32)cc1 [INDEGLITAZAR]
